≈ marks a conversion by molar mass, not a printed value. Where a name gives a salt, the structure may show the parent alone.
How the values were obtained:
[1] = tested on: H460 (human lung cancer cell); assay: In vitro anti-tumor cellular activity (MTT), H460; assay type: cell-based; conditions: for IC50: Homo sapiens, NCI-H460, 72 h, read-out: H460 IC50
[2] = tested on: U87MG (Human malignant glioblastoma cells); assay: In vitro anti-tumor cellular activity (MTT), U87MG; assay type: cell-based; conditions: for IC50: Homo sapiens, U-87 MG, 72 h, read-out: U87MG IC50
[3] = tested on: HT-29 (colon cancer cell); assay: In vitro anti-tumor cellular activity (MTT), HT-29; assay type: cell-based, human; conditions: for IC50: Homo sapiens, HT-29, 72 h, read-out: HT-29 IC50
[4] = tested on: MKN-45 (human gastric carcinoma cell); assay: In vitro anti-tumor cellular activity (MTT), MKN-45; assay type: cell-based; conditions: for IC50: Homo sapiens, MKN-45, 72 h, read-out: MKN-45 IC50
[5] = tested on: SMMC-7721 (hepatoma cell); assay: In vitro anti-tumor cellular activity (MTT), SMMC-7721; assay type: cell-based, human; conditions: for IC50: Homo sapiens, SMMC-7721, 72 h, read-out: SMMC-7721 IC50

SMILES | H460 IC50 ([1]; MTT, 72 hours, H460) [mg/L] | U87MG IC50 ([2]; MTT, 72 hours, U87MG) [mg/L] | HT-29 IC50 ([3]; MTT, 72 hours, HT-29) [mg/L] | MKN-45 IC50 ([4]; MTT, 72 hours, MKN-45) [mg/L] | SMMC-7721 IC50 ([5]; MTT, 72 hours, SMMC-7721) [mg/L] | IC50 [1] [mg/L] | IC50 [2] [mg/L] | IC50 [3] [mg/L] | IC50 [4] [mg/L] | IC50 [5] [mg/L]
N.N.[Cl][Pt][Cl] [Cisplatin, reference compound] | 0.23 | 0.19 | 1 | 0.68 | 0.9 | – | – | – | – | –
COc1cc2c(Oc3ccc(NC(=O)c4nn(-c5ccc(Br)cc5)c5ccccc5c4=O)cc3F)ccnc2cc1OCCCN1CCCCC1.Cl.Cl [Example 3, N-(3-fluoro-4-((6-methoxy-7-(3-(piperidin-1-yl)propoxy)quinolin-4-yl)oxy)phenyl)-1-(4-bromophenyl)-4-oxo-1,4-dihydrocinnoline-3-carboxamide dihydrochloride] | – | – | – | – | – | 0.3 | 1.2 | 0.86 | 0.34 | 0.63
COc1cc2c(Oc3ccc(NC(=O)c4nn(-c5ccccc5C(F)(F)F)c5ccccc5c4=O)cc3F)ccnc2cc1OCCCN1CCOCC1 [Example 4, N-(3-fluoro-4-((6-methoxy-7-(3-(morpholin-4-ylpropoxy)quinolin-4-yl)oxy)phenyl)-1-(2-(trifluoromethyl)phenyl)-4-oxo-1,4-dihydrocinnoline-3-carboxamidedihydrochloride] | – | – | – | – | – | 1 | 0.8 | 1.2 | 2 | 0.9
COc1cc2c(Oc3ccc(NC(=O)c4nn(-c5cccc(C(F)(F)F)c5)c5ccccc5c4=O)cc3F)ccnc2cc1OCCCN1CCCCC1 [Example 6, N-(3-fluoro-4-((6-methoxy-7-(3-(piperidin-1-yl)propoxy)quinolin-4-yl)oxy)phenyl)-1-(3-(trifluoromethyl)phenyl)-4-oxo-1,4-dihydrocinnoline-3-carboxamide] | – | – | – | – | – | 1.7 (≈ 2.29 µM) | 1.4 (≈ 1.89 µM) | 0.63 (≈ 0.849 µM) | 0.1 (≈ 0.135 µM) | 1.3 (≈ 1.75 µM)
COc1cc2c(Oc3ccc(NC(=O)c4nn(-c5cccc(F)c5)c5ccccc5c4=O)cc3F)ccnc2cc1OCCCN1CCCCC1 [Example 9, N-(3-fluoro-4-((6-methoxy-7-(3-(piperidin-1-yl)propoxy)quinolin-4-yl)oxy)phenyl)-1-(3-fluorophenyl)-4-oxo-1,4-dihydrocinnoline-3-carboxamide] | – | – | – | – | – | 0.007 (≈ 0.0101 µM) | 1.2 (≈ 1.73 µM) | 0.17 (≈ 0.246 µM) | 0.0075 (≈ 0.0108 µM) | 0.65 (≈ 0.94 µM)
COc1cc2c(Oc3ccc(NC(=O)c4nn(-c5ccc(Cl)cc5)c5ccccc5c4=O)cc3F)ccnc2cc1OCCCN1CCCCC1 [Example 10, N-(3-fluoro-4-((6-methoxy-7-(3-(piperidin-1-yl)propoxy)quinolin-4-yl)oxy)phenyl)-1-(4-chlorophenyl)-4-oxo-1,4-dihydrocinnoline-3-carboxamide] | – | – | – | – | – | 0.06 (≈ 0.0847 µM) | 0.86 (≈ 1.21 µM) | 0.42 (≈ 0.593 µM) | 0.087 (≈ 0.123 µM) | 1 (≈ 1.41 µM)
COc1cc2c(Oc3ccc(NC(=O)c4nn(-c5ccc(F)cc5Br)c5ccccc5c4=O)cc3F)ccnc2cc1OCCCN1CCCC1 [Example 18, N-(3-fluoro-4-((6-methoxy-7-(3-(pyrrolidin-1-yl)propoxy)quinolin-4-yl)oxy)phenyl)-1-(2-bromo-4-fluorophenyl)-4-oxo-1,4-dihydrocinnoline-3-carboxamide] | – | – | – | – | – | 1.3 (≈ 1.72 µM) | 0.8 (≈ 1.06 µM) | 0.9 (≈ 1.19 µM) | 1.5 (≈ 1.98 µM) | 2.1 (≈ 2.78 µM)
COc1cc2c(Oc3ccc(NC(=O)c4nn(-c5cc(C(F)(F)F)ccc5Cl)c5ccccc5c4=O)cc3F)ccnc2cc1OCCCN1CCCC1 [Example 22, N-(3-fluoro-4-((6-methoxy-7-(3-(pyrrolidin-1-yl)propoxy)quinolin-4-yl)oxy)phenyl)-1-(2-chloro-5-(trifluoromethyl)phenyl)-4-oxo-1,4-dihydrocinnoline-3-carboxamide] | – | – | – | – | – | 0.54 (≈ 0.709 µM) | 0.96 (≈ 1.26 µM) | 0.81 (≈ 1.06 µM) | 0.28 (≈ 0.367 µM) | 0.54 (≈ 0.709 µM)
COc1cc2c(Oc3ccc(NC(=O)c4nn(-c5ccc(C)cc5C)c5ccccc5c4=O)cc3F)ccnc2cc1OCCCN1CCCC1 [Example 25, N-(3-fluoro-4-((6-methoxy-7-(3-(pyrrolidin-1-yl)propoxy)quinolin-4-yl)oxy)phenyl)-1-(2,4-dimethylphenyl)-4-oxo-1,4-dihydrocinnoline-3-carboxamide] | – | – | – | – | – | 0.89 (≈ 1.29 µM) | 2.9 (≈ 4.22 µM) | 1.1 (≈ 1.6 µM) | 1.5 (≈ 2.18 µM) | 0.76 (≈ 1.11 µM)
COc1cc2c(Oc3ccc(NC(=O)c4nn(-c5ccc(Cl)cc5Cl)c5ccccc5c4=O)cc3F)ccnc2cc1OCCCN1CCCCC1 [Example 27, N-(3-fluoro-4-((6-methoxy-7-(3-(piperidin-1-yl)propoxy)quinolin-4-yl)oxy)phenyl)-1-(2,4-dichlorophenyl)-4-oxo-1,4-dihydrocinnoline-3-carboxamide] | – | – | – | – | – | 1.5 (≈ 2.02 µM) | 0.6 (≈ 0.808 µM) | 1.8 (≈ 2.42 µM) | 2.1 (≈ 2.83 µM) | 0.9 (≈ 1.21 µM)
COc1cc2c(Oc3ccc(NC(=O)c4nn(-c5c(Cl)cccc5Cl)c5ccccc5c4=O)cc3F)ccnc2cc1OCCCN1CCCCC1 [Example 29, N-(3-fluoro-4-((6-methoxy-7-(3-(piperidin-1-yl)propoxy)quinolin-4-yl)oxy)phenyl)-1-(2,6-dichlorophenyl)-4-oxo-1,4-dihydrocinnoline-3-carboxamide] | – | – | – | – | – | 0.77 (≈ 1.04 µM) | 0.74 (≈ 0.996 µM) | 0.44 (≈ 0.592 µM) | 0.67 (≈ 0.902 µM) | 1.2 (≈ 1.62 µM)
COc1cc2c(Oc3ccc(NC(=O)c4nn(-c5c(Cl)cccc5Cl)c5ccccc5c4=O)cc3F)ccnc2cc1OCCCN1CCC(C)CC1 [Example 30, N-(3-fluoro-4-((6-methoxy-7-(3-(4-methylpiperidin-1-yl)propoxy)quinolin-4-yl)oxy)phenyl)-1-(2,6-dichlorophenyl)-4-oxo-1,4-dihydrocinnoline-3-carboxamide] | – | – | – | – | – | 0.7 (≈ 0.925 µM) | 0.27 (≈ 0.357 µM) | 0.49 (≈ 0.648 µM) | 0.5 (≈ 0.661 µM) | 0.1 (≈ 0.132 µM)
COc1cc2c(Oc3ccc(NC(=O)c4nn(-c5c(Cl)cccc5Cl)c5ccccc5c4=O)cc3F)ccnc2cc1OCCCN1CCCC1 [Example 31, N-(3-fluoro-4-((6-methoxy-7-(3-(pyrrolidin-1-yl)propoxy)quinolin-4-yl)oxy)phenyl)-1-(2,6-dichlorophenyl)-4-oxo-1,4-dihydrocinnoline-3-carboxamide] | – | – | – | – | – | 0.77 (≈ 1.06 µM) | 0.26 (≈ 0.357 µM) | 0.27 (≈ 0.371 µM) | 0.18 (≈ 0.247 µM) | 0.33 (≈ 0.453 µM)
COc1cc2c(Oc3ccc(NC(=O)c4nn(-c5ccccc5Cl)c5ccccc5c4=O)cc3F)ccnc2cc1OCCCN1CCOCC1 [Example 33, N-(3-fluoro-4-((6-methoxy-7-(3-(morpholin-4-yl)propoxy)quinolin-4-yl)oxy)phenyl)-1-(2-chlorophenyl)-4-oxo-1,4-dihydrocinnoline-3-carboxamide] | – | – | – | – | – | 2.2 (≈ 3.1 µM) | 1.4 (≈ 1.97 µM) | 0.9 (≈ 1.27 µM) | – | 1.6 (≈ 2.25 µM)
COc1cc2c(Oc3ccc(NC(=O)c4nn(-c5ccccc5Br)c5ccccc5c4=O)cc3F)ccnc2cc1OCCCN1CCOCC1 [Example 34, N-(3-fluoro-4-((6-methoxy-7-(3-(morpholin-4-yl)propoxy)quinolin-4-yl)oxy)phenyl)-1-(2-bromophenyl)-4-oxo-1,4-dihydrocinnoline-3-carboxamide] | – | – | – | – | – | 0.7 (≈ 0.928 µM) | 0.65 (≈ 0.861 µM) | 0.43 (≈ 0.57 µM) | 1.3 (≈ 1.72 µM) | 1.5 (≈ 1.99 µM)
